Legend:
[1] = tested on: C. acnes ribotype 5 (strain HL043PA1); test: Minimum inhibitory concentration (MIC) against C. acnes; type: cell-based; conditions: Cutibacterium acnes; C. acnes ribotype 5 strain HL043PA1, 72 h incubation, OD600, growth inhibited by more than 90%
Procedure: The minimum inhibitory concentrations (MICs) of CA-SA and magnolol against C. acnes were measured and compared with an antibiotic (clindamycin) and non-antibiotic agents (benzoyl peroxide and salicylic acid).
C. acnes ribotype 5 (strain HL043PA1) was cultured in a reinforced Clostridial broth medium (BD Diagnostics, Franklin Lakes, NJ) in an anaerobic environment (37° C., 175 rpm). Thereafter, each sample was dissolved in water or dimethyl sulfoxide (DMSO) and serially diluted two-fold, and 7.5 μL of the resulting solution was added to 142.5 μL of a bacterial suspension containing 7.5×10^5 CFU/mL, and incubated for 72 h. Thereafter, turbidity (OD600) was measured (Synergy 2 Multi-Mode Microplate Reader (BioTek Instrument, Winooski, VT)) to determine the MIC that inhibited bacterial growth by more than 90%.

stratum corneum (SC) = test: Stratum corneum softening, tape stripping test on volunteer's skin; type: in vivo, human; conditions: magnolol 0.2 mg/ml, 50 μl solution on skin for 3 h, SC protein increase relative to control
Procedure: To evaluate the softening efficacy on the stratum corneum (SC) of CA-SA and magnolol, a tape stripping test was performed on the SC.
After marking an application site on a volunteer's skin in advance, 50 μl of a solution including CA-SA and/or magnolol at the concentration shown in Table 4 was applied, and after three hours the skin surface was wiped to remove any remaining substances. A solution that included none of the evaluated substances was used as a control. A D-squame adhesive tape disk (CuDerm, Dallas, TX) was attached to the test site, and a cylindrical weight was used to apply a pressure of 150 g/cm^2 for three seconds, and then the pressure was removed and the tape was removed from the skin. Three tape strips were obtained from each marked site.
After collecting the tape strips in a polystyrene petri dish (Thermo Fisher), in order to perform keratinolysis quantification, 1 ml of 1 M NaOH was added to each petri dish and the dish was shaken for two hours. Thereafter, 75 μl of the solution was transferred to three wells (96-well plate, Corning), and each was neutralized with an equivalent volume of 1 M HCl. […] After 15 minutes, the optical density at 595 nm (OD 595 nm) was measured using an empty well as a correction value, and the amount of SC protein was quantified using a γ-globulin standard (Bio-Rad). […]

VEGF = test: Inhibition of VEGF expression induced by C. acnes lysate in HaCaT cells (ELISA); type: cell-based, human; conditions: magnolol 4 μg/ml, 4 h pretreatment, C. acnes lysate 30 min, vs positive control
Procedure: (§1) A human epidermal keratinocyte cell line (HaCaT cells) was sub-cultured at 37° C. in a humidified atmosphere containing 5% CO2 and 95% air. The medium used was DMEM containing 10% FBS (Gibco; Thermo Fisher, Waltham MA), penicillin (100 U/ml, Gibco), and streptomycin ([…], Gibco). Separately, the acne pathogen C. acnes ribotype 5 (Strain HL043PA1) (1.36×10^9 CFU/ml, OD=1.7) was cultured to prepare a C. acnes lysate. The C. acnes lysate was used to induce the expression of MMP-1 and VEGF in HaCaT cells.
(§2) Thereafter, the C. acnes lysate and the medium were mixed at a mass ratio of 3:7, and the resulting mixture was applied to HaCaT cells for 30 minutes. The supernatant was collected, and the concentrations of MMP-1 and VEGF were measured by enzyme-linked immunosorbent assay (ELISA) (R&D Systems Inc., Minneapolis, MN) using the manufacturer's protocol. […] The experimental group treated only with the C. acnes lysate was set as the positive control group, and the reduction value of the sample treatment group compared to the positive control group was calculated and is shown in Table 3. […]
(§3) Colby Equation: E=(A+B)−(A*B/100); E: predicted value; A: efficacy of active ingredient A; B: efficacy of active ingredient B. When the actual measurement value is greater than the predicted value, it is determined that there is a synergistic effect.

[2] = tested on: erythema induced by 1% sodium dodecyl sulfate (SDS); test: Skin erythema recovery after SDS erythema induction (Mexameter erythema index); type: in vivo, human; conditions: emulsion with magnolol 0.02% by weight, twice a day for 12 days, forearm, vs vehicle application group
Procedure: To evaluate the erythema recovery efficacy, an erythema index was evaluated before erythema induction, after erythema induction, and 12 days after product use in nine volunteers aged 25 to 35 years. Erythema was induced by applying 1% sodium dodecyl sulfate (SDS) dilution to the forearm for 24 hours, and an emulsion comprising CA-SA 5% by weight of, an emulsion comprising magnolol 0.02% by weight of, an emulsion comprising 5% CA-SA and 0.02% magnolol by weight, and an emulsion containing neither CA-SA nor magnolol (vehicle) was repeatedly applied to the same area twice a day, in the morning and evening, for 12 days.
The erythema index was measured using a Mexameter (MX 18, Courage+Khazaka electronic GmbH, Germany). The erythema index recovery rate was calculated using the following formula, and the effect was compared in terms of the percentage value increase in the erythema index recovery rate of the emulsion application group including each sample relative to the erythema index recovery rate of the vehicle application group (relative recovery rate).
In order to confirm the synergistic effect of CA-SA and magnolol, the predicted values (Colby values) and the actual measurement values were compared using the Colby Equation in the same manner as in Experimental Example 3, and the results are shown in Table 5.

MMP-1 = test: Inhibition of MMP-1 expression induced by C. acnes lysate in HaCaT cells (ELISA); type: cell-based, human; conditions: magnolol 4 μg/ml, 4 h pretreatment, C. acnes lysate 30 min, vs positive control
Procedure: as §1, §2, §3

SZ95 cells = test: Lipid production inhibition in testosterone-treated SZ95 cells (Nile red); type: cell-based; conditions: magnolol 0.5 μg/ml, 48 h, vs positive control
Procedure: It was evaluated whether CA-SA and/or magnolol could control sebum secretion by inhibiting lipid production.
SZ95 cells, which are […] sebaceous cells, were cultured and maintained in a humidified atmosphere containing 5% CO2 and 95% air at 37° C. The medium used was Dulbecco's Modified Eagle Medium (DMEM)/Ham's F12 medium (Gibco) supplemented with 10% fetal bovine serum (FBS) and 5 ng/ml recombinant human epidermal growth factor (Invitrogen; Thermo Fisher, Waltham MA). After performing sub-confluent culture, cells were harvested with 0.05% trypsin-ethylenediaminetetraacetic acid (EDTA) (Gibco) and passaged, and cells obtained from the second passage were used.
The cells were seeded at 1×10^5 cells per well in a 24-well plate (Greiner, Frickenhausen, Germany) and cultured at 37° C. and 5% CO2 for 24 h. Thereafter, the cells were treated with 2×10^−8 M testosterone for 24 h to stimulate lipid production. […]
The well plate was covered with aluminum foil to block light, and fluorescence was measured at Ex/Em=550/580 nm using a microplate reader (BioTek Instruments, Inc.). The percentage value of the absolute fluorescence unit compared to the negative control group was used as the result value. Thereafter, the reduction value of the sample treatment group compared to the positive control group was calculated and is shown in Table 2.

CCC[C@@H]1C[C@@H](C(=O)N[C@@H]([C@H]2O[C@H](SC)[C@H](O)[C@@H](O)[C@H]2O)[C@H](C)Cl)N(C)C1 [Clindamycin, clindamycin]
MIC [1]: 156 µg/mL

O=C(OOC(=O)c1ccccc1)c1ccccc1 [Benzoyl peroxide, benzoyl peroxide]
MIC [1]: 2500 µg/mL

C=CCc1ccc(O)c(-c2cc(CC=C)ccc2O)c1 [Magnolol, magnolol]
SC exfoliation rate (stratum corneum (SC)): −22.3% | VEGF reduction value (VEGF): 21.2% | Relative recovery rate (erythema index) [2]: 16.2% | MMP-1 reduction value (MMP-1): 33.6% | Reduction value (lipid production) (SZ95 cells): 3.8%

O=C(O)c1ccccc1O [Salicylic acid, salicylic acid]
MIC [1]: 4000 to 8000 µg/mL
